We go through two compounds from ChEMBL document CHEMBL4507276 (2021).

The term inhibition denotes the change of the read-out against control, counted positive when it falls.

Assay [1] has as its target Atypical kinase COQ8A, mitochondrial (Homo sapiens) (UniProt Q8NI60). To be noted: Compound concentration 1000.0 nM.
In assay [2] the target is T1, Cytoplasmic tyrosine-protein kinase BMX (Homo sapiens) (UniProt P51813).
T1 sequence (whole entry): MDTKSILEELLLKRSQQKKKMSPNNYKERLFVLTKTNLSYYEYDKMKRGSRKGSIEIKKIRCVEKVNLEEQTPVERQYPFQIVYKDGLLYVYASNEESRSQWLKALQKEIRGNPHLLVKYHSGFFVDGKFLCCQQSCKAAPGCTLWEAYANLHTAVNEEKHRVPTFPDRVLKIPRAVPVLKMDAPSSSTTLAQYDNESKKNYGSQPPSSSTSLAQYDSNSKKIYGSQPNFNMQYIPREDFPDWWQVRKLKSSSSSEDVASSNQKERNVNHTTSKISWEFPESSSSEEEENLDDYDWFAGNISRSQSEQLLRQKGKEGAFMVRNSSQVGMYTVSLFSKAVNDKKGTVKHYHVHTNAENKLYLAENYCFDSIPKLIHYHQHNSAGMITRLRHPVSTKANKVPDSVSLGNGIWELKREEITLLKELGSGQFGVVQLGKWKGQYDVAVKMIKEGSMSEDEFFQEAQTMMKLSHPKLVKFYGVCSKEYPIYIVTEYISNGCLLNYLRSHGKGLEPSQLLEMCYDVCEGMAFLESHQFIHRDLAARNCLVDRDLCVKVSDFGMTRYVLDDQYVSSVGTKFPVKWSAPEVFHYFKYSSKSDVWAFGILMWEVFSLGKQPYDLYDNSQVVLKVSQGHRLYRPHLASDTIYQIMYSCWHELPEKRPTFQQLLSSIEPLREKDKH
Particulars: Compound concentration 1000.0 nM.

Assay [3] concerns the target Casein kinase I isoform gamma-3 (Homo sapiens) (UniProt Q9Y6M4). Particulars: Compound concentration 1000.0 nM.
In assay [4] the target is Death-associated protein kinase 1 (Homo sapiens) (UniProt P53355). To be noted: Compound concentration 1000.0 nM.
The test system of assay [5] is Receptor-type tyrosine-protein kinase FLT3 (Homo sapiens), P36888 [K663Q]. Particulars: Compound concentration 1000.0 nM.
The target in assay [6] is T2, Inhibitor of nuclear factor kappa-B kinase subunit alpha (Homo sapiens) (UniProt O15111).
T2 sequence (whole entry): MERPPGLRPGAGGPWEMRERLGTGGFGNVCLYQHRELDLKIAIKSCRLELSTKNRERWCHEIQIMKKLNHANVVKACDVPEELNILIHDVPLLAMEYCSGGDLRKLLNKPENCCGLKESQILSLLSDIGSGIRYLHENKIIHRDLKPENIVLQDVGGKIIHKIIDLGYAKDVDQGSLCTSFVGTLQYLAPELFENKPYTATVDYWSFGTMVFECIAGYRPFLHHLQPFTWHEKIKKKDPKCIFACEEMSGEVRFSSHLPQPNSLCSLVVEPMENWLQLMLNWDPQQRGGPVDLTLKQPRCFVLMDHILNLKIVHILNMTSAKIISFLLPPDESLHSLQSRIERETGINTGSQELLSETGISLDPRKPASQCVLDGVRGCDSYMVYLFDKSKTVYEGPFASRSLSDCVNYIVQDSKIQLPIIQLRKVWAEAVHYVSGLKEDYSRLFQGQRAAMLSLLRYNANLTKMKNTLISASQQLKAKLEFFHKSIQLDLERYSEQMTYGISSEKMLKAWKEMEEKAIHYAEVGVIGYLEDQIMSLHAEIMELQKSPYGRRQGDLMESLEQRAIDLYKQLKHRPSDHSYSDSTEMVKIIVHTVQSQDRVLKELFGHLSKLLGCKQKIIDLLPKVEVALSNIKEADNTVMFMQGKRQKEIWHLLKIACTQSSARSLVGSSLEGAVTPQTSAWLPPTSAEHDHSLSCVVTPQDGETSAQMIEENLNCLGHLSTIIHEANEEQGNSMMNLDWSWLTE
Particulars: Compound concentration 1000.0 nM.

In assay [7] the target is Mitogen-activated protein kinase kinase kinase 11 (Homo sapiens) (UniProt Q16584). Particulars: Compound concentration 1000.0 nM.
Assay [8] addresses T3, Serine/threonine-protein kinase 4 (Homo sapiens) (UniProt Q13043).
T3 sequence (whole entry): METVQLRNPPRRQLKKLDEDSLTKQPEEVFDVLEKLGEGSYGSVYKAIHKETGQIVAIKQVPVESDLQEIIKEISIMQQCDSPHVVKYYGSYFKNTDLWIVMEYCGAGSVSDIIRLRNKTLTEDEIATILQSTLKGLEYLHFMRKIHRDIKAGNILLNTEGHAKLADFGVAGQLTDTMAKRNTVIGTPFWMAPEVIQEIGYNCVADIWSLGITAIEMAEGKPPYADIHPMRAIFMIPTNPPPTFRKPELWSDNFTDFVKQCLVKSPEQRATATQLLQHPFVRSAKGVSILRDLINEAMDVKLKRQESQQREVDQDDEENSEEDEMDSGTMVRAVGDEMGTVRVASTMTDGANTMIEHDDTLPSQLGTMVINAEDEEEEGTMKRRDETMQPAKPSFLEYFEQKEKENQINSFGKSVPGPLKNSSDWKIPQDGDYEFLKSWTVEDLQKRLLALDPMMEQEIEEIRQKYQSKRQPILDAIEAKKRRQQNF
To be noted: Compound concentration 1000.0 nM.

Assay [9] concerns the target Serine/threonine-protein kinase PAK 1 (Homo sapiens) (UniProt Q13153). Particulars: Compound concentration 1000.0 nM.
Assay [10] has as its system Proto-oncogene tyrosine-protein kinase receptor Ret (Homo sapiens), P07949 [M918T]. Particulars: Compound concentration 1000.0 nM.
Assay [11] concerns the target Receptor-interacting serine/threonine-protein kinase 2 (Homo sapiens) (UniProt O43353). To be noted: Compound concentration 1000.0 nM.
Assay [12] addresses Ribosomal protein S6 kinase alpha-4 (Homo sapiens) (UniProt O75676). Particulars: Compound concentration 1000.0 nM.
Assay [13] shares this target. To be noted: Compound concentration 1000.0 nM. The source holds these as a separate data set.
The target of assay [14] is Tyrosine-protein kinase Srms (Homo sapiens) (UniProt Q9H3Y6). To be noted: Compound concentration 1000.0 nM.
Assay [15] concerns the target Serine/threonine-protein kinase 36 (Homo sapiens) (UniProt Q9NRP7). To be noted: Compound concentration 1000.0 nM.
Assay [16] deals with BDNF/NT-3 growth factors receptor (Homo sapiens) (UniProt Q16620). To be noted: Compound concentration 1000.0 nM.
For assay [17], the target named is Sodium-dependent noradrenaline transporter (Homo sapiens) (UniProt P23975). To be noted: Compound concentration 10.0 uM.
Sequence of Sodium-dependent noradrenaline transporter (Homo sapiens) (P23975 whole entry): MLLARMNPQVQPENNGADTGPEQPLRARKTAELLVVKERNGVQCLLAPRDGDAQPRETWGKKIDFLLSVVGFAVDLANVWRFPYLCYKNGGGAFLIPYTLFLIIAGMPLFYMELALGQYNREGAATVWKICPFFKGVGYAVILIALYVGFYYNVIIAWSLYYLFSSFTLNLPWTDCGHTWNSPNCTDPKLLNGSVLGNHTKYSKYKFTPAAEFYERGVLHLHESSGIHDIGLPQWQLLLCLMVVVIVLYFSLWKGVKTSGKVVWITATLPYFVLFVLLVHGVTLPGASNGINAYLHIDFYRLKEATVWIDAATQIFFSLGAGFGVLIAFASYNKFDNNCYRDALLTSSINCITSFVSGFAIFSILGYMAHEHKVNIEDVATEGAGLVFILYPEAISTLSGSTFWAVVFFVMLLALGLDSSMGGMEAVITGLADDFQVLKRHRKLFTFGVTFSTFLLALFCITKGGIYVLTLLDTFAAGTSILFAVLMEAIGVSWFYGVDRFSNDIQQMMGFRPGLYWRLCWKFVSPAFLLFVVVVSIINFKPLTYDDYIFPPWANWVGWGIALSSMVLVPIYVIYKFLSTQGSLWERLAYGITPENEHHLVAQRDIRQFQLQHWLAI
The target of assay [18] is GABA-A receptor; anion channel (Rattus norvegicus) (UniProt O09028+P15431+P18506+P18508+P19969+P20236+P23574+P23576+P28471+P28473+P30191+P62813+P63079+P63138+Q91ZM7+Q9ES14). To be noted: Compound concentration 10.0 uM.

Sequence of Ribosomal protein S6 kinase alpha-4 (Homo sapiens) (O75676 whole entry, looked up): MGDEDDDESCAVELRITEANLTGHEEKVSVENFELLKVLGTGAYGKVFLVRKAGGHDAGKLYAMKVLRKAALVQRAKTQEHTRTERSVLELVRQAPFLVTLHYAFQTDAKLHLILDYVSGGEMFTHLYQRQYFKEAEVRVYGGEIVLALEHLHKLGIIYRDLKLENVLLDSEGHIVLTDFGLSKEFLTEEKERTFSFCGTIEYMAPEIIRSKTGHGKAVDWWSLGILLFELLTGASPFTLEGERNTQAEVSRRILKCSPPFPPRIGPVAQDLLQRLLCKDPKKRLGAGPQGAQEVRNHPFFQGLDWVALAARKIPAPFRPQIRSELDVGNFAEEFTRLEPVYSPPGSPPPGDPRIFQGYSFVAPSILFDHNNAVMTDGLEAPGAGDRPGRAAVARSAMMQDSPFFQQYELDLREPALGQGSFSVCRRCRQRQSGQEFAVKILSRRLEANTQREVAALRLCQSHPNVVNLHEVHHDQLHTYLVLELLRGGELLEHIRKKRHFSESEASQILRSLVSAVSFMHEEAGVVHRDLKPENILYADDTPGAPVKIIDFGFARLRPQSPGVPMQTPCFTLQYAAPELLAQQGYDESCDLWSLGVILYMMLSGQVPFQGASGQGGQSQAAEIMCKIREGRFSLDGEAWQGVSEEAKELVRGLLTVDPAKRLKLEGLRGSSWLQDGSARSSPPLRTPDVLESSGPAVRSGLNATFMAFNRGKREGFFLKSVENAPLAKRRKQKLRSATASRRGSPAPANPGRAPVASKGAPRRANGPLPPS
Sequence of Serine/threonine-protein kinase PAK 1 (Homo sapiens) (Q13153 whole entry): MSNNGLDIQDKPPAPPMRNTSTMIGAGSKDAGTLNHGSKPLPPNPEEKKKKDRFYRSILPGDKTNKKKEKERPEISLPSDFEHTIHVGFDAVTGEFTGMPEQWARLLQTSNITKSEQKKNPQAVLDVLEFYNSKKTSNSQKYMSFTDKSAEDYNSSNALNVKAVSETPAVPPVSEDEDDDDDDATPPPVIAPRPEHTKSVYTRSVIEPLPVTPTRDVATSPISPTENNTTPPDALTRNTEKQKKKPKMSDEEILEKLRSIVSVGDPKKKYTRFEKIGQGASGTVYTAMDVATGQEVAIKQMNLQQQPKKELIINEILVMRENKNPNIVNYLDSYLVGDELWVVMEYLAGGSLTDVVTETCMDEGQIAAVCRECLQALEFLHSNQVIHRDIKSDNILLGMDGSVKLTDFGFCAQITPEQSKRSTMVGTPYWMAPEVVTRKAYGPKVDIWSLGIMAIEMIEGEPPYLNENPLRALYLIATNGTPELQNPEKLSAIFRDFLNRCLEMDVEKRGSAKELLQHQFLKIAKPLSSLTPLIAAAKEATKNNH
Sequence of Serine/threonine-protein kinase 36 (Homo sapiens) (Q9NRP7 whole entry): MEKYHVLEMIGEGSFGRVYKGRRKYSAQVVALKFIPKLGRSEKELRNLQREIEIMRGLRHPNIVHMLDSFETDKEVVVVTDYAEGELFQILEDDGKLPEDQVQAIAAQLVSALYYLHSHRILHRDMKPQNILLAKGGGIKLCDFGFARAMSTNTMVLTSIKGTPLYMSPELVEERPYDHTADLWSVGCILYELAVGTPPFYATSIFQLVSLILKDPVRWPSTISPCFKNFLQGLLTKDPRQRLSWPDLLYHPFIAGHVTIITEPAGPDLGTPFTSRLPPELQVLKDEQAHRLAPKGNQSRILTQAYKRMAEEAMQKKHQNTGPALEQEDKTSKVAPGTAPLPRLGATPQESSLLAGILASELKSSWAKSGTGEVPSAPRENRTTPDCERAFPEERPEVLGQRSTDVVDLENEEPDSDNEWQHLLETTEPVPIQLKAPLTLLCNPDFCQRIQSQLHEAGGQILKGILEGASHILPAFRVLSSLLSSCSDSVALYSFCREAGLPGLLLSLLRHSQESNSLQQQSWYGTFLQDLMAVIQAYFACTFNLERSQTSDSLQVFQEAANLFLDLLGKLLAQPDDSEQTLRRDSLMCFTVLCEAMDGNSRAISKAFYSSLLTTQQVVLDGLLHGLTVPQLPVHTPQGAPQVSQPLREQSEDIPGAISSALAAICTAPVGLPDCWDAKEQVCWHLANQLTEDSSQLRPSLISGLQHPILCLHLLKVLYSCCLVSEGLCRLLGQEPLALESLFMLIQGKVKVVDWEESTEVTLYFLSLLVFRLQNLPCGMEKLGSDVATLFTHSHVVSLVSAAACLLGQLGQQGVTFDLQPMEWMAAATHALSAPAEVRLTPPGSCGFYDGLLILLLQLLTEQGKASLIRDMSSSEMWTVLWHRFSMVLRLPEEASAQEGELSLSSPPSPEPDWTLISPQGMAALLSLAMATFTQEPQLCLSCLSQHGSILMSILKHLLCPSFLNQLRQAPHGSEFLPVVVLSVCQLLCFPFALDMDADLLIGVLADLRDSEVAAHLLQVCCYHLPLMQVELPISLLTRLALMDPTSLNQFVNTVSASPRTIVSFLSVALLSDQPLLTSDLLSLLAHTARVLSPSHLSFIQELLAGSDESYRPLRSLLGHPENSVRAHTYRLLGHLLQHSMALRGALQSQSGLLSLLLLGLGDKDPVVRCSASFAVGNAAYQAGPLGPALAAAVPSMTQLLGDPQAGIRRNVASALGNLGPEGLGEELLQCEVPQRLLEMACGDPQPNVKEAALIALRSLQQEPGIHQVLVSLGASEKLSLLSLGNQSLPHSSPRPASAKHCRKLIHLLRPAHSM
Sequence of Receptor-interacting serine/threonine-protein kinase 2 (Homo sapiens) (O43353 whole entry): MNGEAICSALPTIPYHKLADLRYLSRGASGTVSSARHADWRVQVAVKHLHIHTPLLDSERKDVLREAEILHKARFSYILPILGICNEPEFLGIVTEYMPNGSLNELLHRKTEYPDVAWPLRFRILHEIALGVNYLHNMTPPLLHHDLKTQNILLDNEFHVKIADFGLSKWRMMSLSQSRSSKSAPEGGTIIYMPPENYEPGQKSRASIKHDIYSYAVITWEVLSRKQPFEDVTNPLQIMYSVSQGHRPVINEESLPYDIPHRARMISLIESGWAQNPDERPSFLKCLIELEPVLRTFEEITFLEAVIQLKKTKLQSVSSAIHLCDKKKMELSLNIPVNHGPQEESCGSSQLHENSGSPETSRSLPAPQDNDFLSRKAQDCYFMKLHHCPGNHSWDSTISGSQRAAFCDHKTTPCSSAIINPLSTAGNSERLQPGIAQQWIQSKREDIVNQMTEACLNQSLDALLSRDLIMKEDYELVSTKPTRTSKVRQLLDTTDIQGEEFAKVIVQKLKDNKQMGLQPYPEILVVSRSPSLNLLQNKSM
Sequence of Proto-oncogene tyrosine-protein kinase receptor Ret (Homo sapiens), P07949 [M918T] (P07949 whole entry M918T): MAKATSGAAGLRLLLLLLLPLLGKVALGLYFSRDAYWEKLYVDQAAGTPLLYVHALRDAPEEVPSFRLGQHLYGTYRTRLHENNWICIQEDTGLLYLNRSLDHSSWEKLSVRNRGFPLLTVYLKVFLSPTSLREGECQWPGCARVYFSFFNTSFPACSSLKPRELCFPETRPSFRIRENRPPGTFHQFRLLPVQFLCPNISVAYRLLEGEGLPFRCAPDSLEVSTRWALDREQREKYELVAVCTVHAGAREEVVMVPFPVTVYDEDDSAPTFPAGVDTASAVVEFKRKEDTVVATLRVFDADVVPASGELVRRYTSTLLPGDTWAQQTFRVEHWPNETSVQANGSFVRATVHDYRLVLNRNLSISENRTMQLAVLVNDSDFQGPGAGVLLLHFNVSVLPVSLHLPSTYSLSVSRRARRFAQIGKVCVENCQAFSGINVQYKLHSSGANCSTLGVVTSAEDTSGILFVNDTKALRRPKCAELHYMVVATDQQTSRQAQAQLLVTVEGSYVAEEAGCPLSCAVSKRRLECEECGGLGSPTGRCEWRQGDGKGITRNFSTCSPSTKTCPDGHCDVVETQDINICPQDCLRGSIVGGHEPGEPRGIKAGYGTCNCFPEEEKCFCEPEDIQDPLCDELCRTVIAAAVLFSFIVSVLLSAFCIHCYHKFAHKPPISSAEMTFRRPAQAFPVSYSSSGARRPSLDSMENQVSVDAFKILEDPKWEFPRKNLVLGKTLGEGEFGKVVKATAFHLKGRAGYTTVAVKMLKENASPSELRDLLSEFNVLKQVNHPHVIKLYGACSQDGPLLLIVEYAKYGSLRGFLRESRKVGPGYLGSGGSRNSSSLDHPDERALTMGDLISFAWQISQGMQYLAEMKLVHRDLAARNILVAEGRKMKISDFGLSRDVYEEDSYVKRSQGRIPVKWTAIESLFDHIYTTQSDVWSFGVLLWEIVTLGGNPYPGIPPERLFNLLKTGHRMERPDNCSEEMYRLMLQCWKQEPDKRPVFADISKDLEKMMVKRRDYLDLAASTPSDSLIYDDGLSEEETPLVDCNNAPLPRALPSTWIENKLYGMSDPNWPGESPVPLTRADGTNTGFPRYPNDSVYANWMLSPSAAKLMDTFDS

Consider `CN(C)C(=O)Cn1cc(-c2nc(C3(c4ccc(-c5cnc(N)nc5)cc4)CC3)no2)cn1` [BI 0153], for which the residual activity is 99% in assay [1]; 88% in assay [2]; 100% in assay [3]; 100% in assay [4]; 100% in assay [5]; 100% in [6]. The residual activity in [7] was 87%; in assay [8], 90%; in assay [9], 100%; in assay [10], 99%; in assay [11], 100%; in assay [12], 91%. Moreover, the residual activity in [13] was 86%; in [14], 73%; in [15], 75%; in assay [16] it was 100%. Also, the inhibition was 8.33% in assay [17] and 19.4% in assay [18].

For the compound `CN(C)C(=O)Cn1cc(-c2nc([C@@](C)(c3ccc(-c4cnc(N)nc4)cc3)C3CC3)no2)cn1` [BI 665915], the residual activity in assay [1] was 100%; in assay [2] it was 93%; in assay [3], 95%; in assay [4], 82%; in assay [5], 94%; in assay [6], 0%. The residual activity was 77% in [7]; 90% in [8]; 100% in [9]; 83% in assay [10]; 87% in assay [11]; 100% in assay [12]. The residual activity in [13] was 72%; in assay [14], 93%; in [15] it was 79%; in assay [16] it was 81%. Moreover, the inhibition is 18.9% in assay [17] and 25.5% in assay [18].
